We go through 6 compounds from ChEMBL document CHEMBL6103580, “Synthesis and biological evaluation of natural cleistanolate, its enantiomer and analogues” (Eur J Med Chem, 2025).

In data set [1] the test system is Raji. Briefly: Antiproliferative activity against human Raji cells assessed as inhibition of cell growth incubated for 72 hrs by MTT assay. The class given is functional, cell-based. A general note: Tetrazolium assays rely on reduction of a dye to a coloured formazan, in cell work by metabolically active cells.
A further data set concerns A549. As to the kind of experiment: Antiproliferative activity against human A549 cells assessed as inhibition of cell growth incubated for 72 hrs by MTT assay. The class given is functional, cell-based. Particulars: A549, 72 h.
The subject of a further data set is MCF7. Briefly: Antiproliferative activity against human MCF7 cells assessed as inhibition of cell growth incubated for 72 hrs by MTT assay. The class given is functional, cell-based. The conditions noted are these: MCF7, 72 h.
For another data set, the system named is HL-60. Briefly: Antiproliferative activity against human HL-60 cells assessed as inhibition of cell growth incubated for 72 hrs by MTT assay. The class given is functional, cell-based. Particulars: HL-60, 72 h.
The subject of a further data set is MDA-MB-231. Briefly: Antiproliferative activity against human MDA-MB-231 cells assessed as inhibition of cell growth incubated for 72 hrs by MTT assay. Type of data set: functional, cell-based. Particulars: MDA-MB-231, 72 h.
Data set [2] can be described thus: Antiproliferative activity against human MRC5 cells assessed as inhibition of cell growth incubated for 72 hrs by MTT assay. Type of data set: toxicity, cell-based.
Data set [3] concerns Raji. As to the kind of experiment: Potency index, ratio of cleistanolate IC50 to test compound IC50 for antiproliferative activity against human Raji cells assessed as inhibition of cell growth incubated for 72 hrs by MTT assay. The class given is functional.
For a further data set, the system named is K562. As to the kind of experiment: Antiproliferative activity against human K562 cells assessed as inhibition of cell growth incubated for 72 hrs by MTT assay. Type of data set: functional, cell-based. The conditions noted are these: K562, 72 h.
For the next data set, the system named is HeLa. As to the kind of experiment: Antiproliferative activity against human HeLa cells assessed as inhibition of cell growth incubated for 72 hrs by MTT assay. Type of data set: functional, cell-based.
In another data set the test system is Jurkat. As to the kind of experiment: Antiproliferative activity against human Jurkat cells assessed as inhibition of cell growth incubated for 72 hrs by MTT assay. The class given is functional, cell-based.
A short description of data set [4]: Potency index, ratio of cleistanolate IC50 to test compound IC50 for antiproliferative activity against human HeLa cells assessed as inhibition of cell growth incubated for 72 hrs by MTT assay. The class given is functional.
Data set [5] in a line: Potency index, ratio of doxorubicin IC50 to test compound IC50 for antiproliferative activity against human HL-60 cells assessed as inhibition of cell growth incubated for 72 hrs by MTT assay. The class given is functional.
The test system of data set [6] is Raji. As to the kind of experiment: Potency index, ratio of doxorubicin IC50 to test compound IC50 for antiproliferative activity against human Raji cells assessed as inhibition of cell growth incubated for 72 hrs by MTT assay. Type of data set: functional.
The subject of data set [7] is Escherichia coli. As to the kind of experiment: Antibacterial activity against Escherichia coli ZPM 132 assessed as reduction in cell viability incubated for 24 hrs by muller hinton broth microdilution based XTT assay. The class given is functional. For orientation: Dilution methods test growth across graded concentrations, often in twofold steps.
Data set [8] concerns Escherichia coli. As to the kind of experiment: Antimicrobial activity against Escherichia coli ZPM 132 assessed as reduction in cell viability incubated for 24 hrs by muller hinton broth microdilution based XTT assay. Type of data set: functional.
The test system of another data set is Streptococcus pneumoniae. As to the kind of experiment: Antibacterial activity against Streptococcus pneumoniae ZPM 187 assessed as reduction in cell viability incubated for 24 hrs by muller hinton broth microdilution based XTT assay. Type of data set: functional.
For another data set, the system named is Vibrio cholerae. Briefly: Antibacterial activity against Vibrio cholerae O139 CIRS 245 assessed as reduction in cell viability incubated for 24 hrs by muller hinton broth microdilution based XTT assay. Type of data set: functional.
Data set [9] deals with Cholinesterase (Homo sapiens) (UniProt P06276). As to the kind of experiment: Inhibition of human BChE at 100 uM using acetylthiocholine iodide as substrate by DTNB reagent based Ellman spectrophotometric analysis relative to control. In general terms: DTNB colorimetry detects thiols as they appear.
The next data set relates to Candida tropicalis. Briefly: Antifungal activity against Candida tropicalis CCY 29-7-62 assessed as reduction in fungal growth incubated for 48 hrs by muller hinton broth microdilution based XTT assay. Type of data set: functional.

A value given as a limit tells only on which side of the number the result lay.

Chain of Cholinesterase (Homo sapiens) (P06276 whole entry): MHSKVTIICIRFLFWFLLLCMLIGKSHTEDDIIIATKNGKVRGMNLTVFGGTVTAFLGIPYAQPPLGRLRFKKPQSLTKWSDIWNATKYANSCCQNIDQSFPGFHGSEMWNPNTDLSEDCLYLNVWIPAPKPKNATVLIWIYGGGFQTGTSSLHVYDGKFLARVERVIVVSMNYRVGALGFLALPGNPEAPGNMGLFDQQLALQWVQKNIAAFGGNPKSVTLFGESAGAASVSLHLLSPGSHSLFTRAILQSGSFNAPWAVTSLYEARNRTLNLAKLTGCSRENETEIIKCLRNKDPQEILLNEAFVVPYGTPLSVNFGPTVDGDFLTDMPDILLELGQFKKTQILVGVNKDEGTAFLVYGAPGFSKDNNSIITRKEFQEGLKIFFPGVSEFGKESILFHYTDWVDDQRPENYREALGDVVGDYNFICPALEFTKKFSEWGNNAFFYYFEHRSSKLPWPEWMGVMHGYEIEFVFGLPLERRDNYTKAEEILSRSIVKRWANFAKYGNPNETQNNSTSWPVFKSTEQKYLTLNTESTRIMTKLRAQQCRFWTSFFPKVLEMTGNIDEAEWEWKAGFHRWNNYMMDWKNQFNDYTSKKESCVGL

On to `CO[C@@H]1CC(=O)O[C@@H]1[C@@H](OC(C)=O)[C@@H](COC(=O)c1ccccc1)OC(C)=O`, for which the IC50 was 31.4 µM in the data set on Raji [1]; 9.78 µM with A549; 13.5 µM with MCF7; 16.5 µM in the data set with HL-60; 28.4 µM in the data set with MDA-MB-231; 7.23 µM in the data set with K562. Further, the figures for the IC50 with HeLa and in the data set with Jurkat were 6.31 µM and 22.1 µM, respectively. Besides, the 50% inhibitory concentration (IC50) at 72 h in [2] is more than 100 µM. The “Ratio IC50” value in the data set on Raji [3] worked out at 2.1.

For `O=C1C[C@@H]2O[C@@H](CO)[C@@H](O)[C@@H]2O1`, the IC50 in the data set with Raji [1] was determined as 10.2 µM; in the data set on A549, 15.9 µM; in the data set with MCF7, 4.02 µM; in the data set on HL-60, 11.2 µM; with MDA-MB-231, 30 µM; in the data set with K562 it was 5.56 µM. The IC50 is 7.26 µM with HeLa and 7.38 µM in the data set with Jurkat. Besides, the half-inhibitory concentration (IC50) at 72 h in [2] is more than 100 µM. For the same compound, the “Ratio IC50” value in the data set with Raji [3] stood at 2.1.

In the case of `O=C1C[C@H]2O[C@@H]3CO[C@@H]3[C@H]2O1`, the concentration for half-maximal inhibition (IC50) came to 15.7 µM in the data set with Raji [1]; 18.6 µM in the data set on A549; 1.05 µM in the data set on MCF7; 15.6 µM in the data set with HL-60; 5.36 µM in the data set on MDA-MB-231; 2.03 µM with K562. The IC50 with HeLa is 1.2 µM; in the data set with Jurkat, 10.4 µM. Further, the IC50 at 72 h in [2] is more than 100 µM. Further, the “Ratio IC50” value in data set [4] was 2.5.

For `O=C1C[C@@H](O)[C@@H]([C@@H](O)[C@H](O)CO)O1`, the IC50 stood at 2.64 µM in the data set on Raji [1]; 8.64 µM with A549; 0.63 µM with MCF7; 0.74 µM in the data set on HL-60; 5.32 µM in the data set on MDA-MB-231; 2.36 µM in the data set on K562. The IC50 in the data set on HeLa is 0.89 µM; in the data set on Jurkat, 3.25 µM. In addition, the “Ratio IC50” value was 1.3 in [5], 1.1 in the data set with Raji [6] and 2 in data set [4]. For the same compound, the 50% inhibitory concentration (IC50) at 72 h in data set [2] is more than 100 µM.

As to `C=C[C@@H](OCc1ccccc1)[C@@H]1OC(=O)C[C@@H]1O`, the half-inhibitory concentration (IC50) in the data set with Raji [1] was determined as 22.2 µM; in the data set on A549, 22.6 µM; in the data set with MCF7, 9.44 µM; in the data set on HL-60, 11.2 µM; in the data set with MDA-MB-231, 21.3 µM; with K562 it was 3.95 µM. For the same compound, the values for the half-maximal inhibitory concentration (IC50) with HeLa and in the data set on Jurkat were 54.1 µM and 11.3 µM, respectively. In addition, the IC50 at 72 h in data set [2] is more than 100 µM. The figures for the MBC in the data set with Escherichia coli [7], in the data set on Streptococcus pneumoniae and in the data set with Vibrio cholerae were more than 1000 µg/mL, more than 100 µg/mL and more than 100 µg/mL, respectively. Moreover, the MIC in the data set with Escherichia coli [8] was more than 1000 µg/mL. Also, the inhibition in [9] is 13%. In the data set with Candida tropicalis, the minimum fungicidal concentration (MFC) was more than 100 µg/mL.

Consider `CO[C@H]1CC(=O)O[C@H]1[C@H](OC(C)=O)[C@@H](COC(=O)c1ccccc1)OC(C)=O`, for which the IC50 came out at 27.7 µM in the data set on Raji [1]; 21.4 µM with A549; 29.4 µM in the data set on MCF7; 19.4 µM with HL-60; 13.2 µM in the data set with MDA-MB-231; 16.2 µM with K562. Further, the 50% inhibitory concentration (IC50) was 23.8 µM in the data set with HeLa and 24.2 µM with Jurkat. Further, the IC50 at 72 h in data set [2] worked out at 87.9 µM. Further, the results for the MBC in the data set on Escherichia coli [7], in the data set with Streptococcus pneumoniae and in the data set on Vibrio cholerae were more than 1000 µg/mL, more than 100 µg/mL and more than 100 µg/mL, respectively. The MIC in the data set with Escherichia coli [8] is more than 1000 µg/mL. In data set [9], this compound came in with an inhibition of 85%. In the data set on Candida tropicalis, the MFC is more than 100 µg/mL.

The term IC50 denotes the point on the concentration scale where inhibition reaches its midpoint. As usually defined, the MBC is the lowest tested concentration that kills the bacteria rather than only halting them. By MIC is commonly meant the least concentration at which growth counts as inhibited. What is called inhibition is the drop in the measured response relative to a control, in per cent. Usually MFC stands for the lowest tested concentration that kills the fungus rather than only halting it.
